Calls of active or inactive are those of the source. No cut-off for these calls is given here.

The text below walks through data of ChEMBL document CHEMBL5360639, “Cannabidiol Analogue CIAC001 for the Treatment of Morphine-Induced Addiction by Targeting PKM2” (J Med Chem, 2023).

In data set [1] the test system is BV-2. The data set is described as follows: Anti-neuroinflammatory activity in mouse BV-2 cells assessed as inhibition of LPS-induced NO production incubated for 24 hrs by microplate reader analysis. Type of data set: functional, cell-based. The settings on record: BV-2, 24 h.
The nature of data set [2]: Cytotoxicity against mouse BV-2 cells assessed as reduction in cell viability by crystal violet staining based assay. Type of data set: toxicity.
Data set [3] in a line: Therapeutic index, ratio of IC50 for cytotoxicty against mouse BV-2 cells assessed as reduction in cell viability by crystal violet staining based assay to IC50 for nti-neuroinflammatory activity in mouse BV-2 cells assessed as inhibition of LPS-induced NO production. Type of data set: toxicity. The settings on record: read-out: Ratio IC50.
Data set [4] concerns BV-2. As to the kind of experiment: Anti-neuroinflammatory activity in LPS-induced mouse BV-2 cells assessed as reduction in IL-6 mRNA expression at 1 to 10 uM by qRT-PCR analysis. The data set is classed as functional, cell-based. The settings on record: dose 1-10 µM. A general note: In qPCR the cycle at which signal appears reflects the starting amount.
The subject of data set [5] is Mus musculus. As to the kind of experiment: Anti-neuroinflammatory activity in morphine-induced BALB/c mouse assessed as inhibition of behavioral sensitization at 0.2 mg/kg, ip administered once daily for 7 days. The data set is classed as functional, organism-based. The settings on record: time 7.0 day.
For data set [6], the system named is BV-2. The data set is described as follows: Anti-neuroinflammatory activity in LPS-induced mouse BV-2 cells assessed as reduction in TNF-alpha mRNA expression at 1 to 10 uM by qRT-PCR analysis. Type of data set: functional, cell-based. The settings on record: dose 1-10 µM.
For data set [7], the system named is Mus musculus. The data set is described as follows: Anti-neuroinflammatory activity in morphine-induced BALB/c mouse assessed as […] in locomotor activity 0.2 mg/kg, ip administered once daily for 7 days and measured after 60 mins. The data set is classed as functional, organism-based. To be noted: time 169.0 hrs.
The nature of data set [8]: AUC (0 to t) in BALB/c mouse at 10 mg/kg, po measured upto 4 hrs by mS-HPLC analysis. Type of data set: ADME, organism-based. The settings on record: in vivo.
Data set [9] concerns BV-2. The data set is described as follows: Anti-neuroinflammatory activity in LPS-induced mouse BV-2 cells assessed as reduction in IL-1beta mRNA expression at 10 uM by qRT-PCR analysis. Type of data set: functional, cell-based.
Data set [10] concerns Mus musculus. The data set is described as follows: Anti-neuroinflammatory activity in naloxone precipitated morphine-induced BALB/c mouse assessed as reduction in naloxone precipitated withdrawal jumps at 0.2 microg/kg, ip administered with morphine 3 times daily for 3 days and on day 4 for 3 hrs prior to compound addition for 30 mins before naloxone addition and measured after 15 mins. Type of data set: functional, organism-based. To be noted: dose 0.2 µg/kg, time 45.0 min.

Data set [11] in a line: Cmax in BALB/c mouse at 10 mg/kg, po measured upto 4 hrs by mS-HPLC analysis. On the set-up: time < 4 hrs, dose 10 mg/kg, route po. The data set is classed as ADME, organism-based. To be noted: in vivo.
A short description of data set [12]: MRT in BALB/c mouse at 10 mg/kg, po measured upto 4 hrs by mS-HPLC analysis. The data set is classed as ADME, organism-based. To be noted: in vivo.
The nature of data set [13]: Ratio of drug concentration in blood to plasma in BALB/c mouse at 10 mg/kg, po measured at 3 hrs. Type of data set: ADME, organism-based. The settings on record: in vivo.
Data set [14] in a line: Half life in BALB/c mouse at 10 mg/kg, po measured upto 4 hrs by mS-HPLC analysis. Type of data set: ADME, organism-based. To be noted: in vivo.
The nature of data set [15]: Toxicity in BALB/c mouse assessed as cognitive impairment by measuring time spent on new arm at 10 mg/kg, ip administered once daily for 3 days and measured after 45 mins by Y maze test. The data set is classed as organism-based. The settings on record: in vivo, 72.75 h, time 4365 min.

On to `C#CCOc1cc(CCCCC)cc(O)c1[C@@H]1C=C(C)CC[C@H]1C(=C)C`, for which the IC50 (commonly the point on the concentration scale where inhibition reaches its midpoint) is 99.6 µM with BV-2 [1] and 65 µM in data set [2]. Besides, in data set [3], the selectivity ratio came to 1.2.

For the compound `C=C(C)[C@@H]1CCC(C)=C[C@H]1c1c(O)cc(CCCC)cc1O`, the values for the 50% inhibitory concentration (IC50) (in the data set on BV-2 [1]; in data set [2]) were 5 µM and 11.1 µM, respectively. For the same compound, the selectivity ratio in data set [3] came to 2.2.

For the compound `C=C(C)[C@@H]1CCC(C)=C[C@H]1c1c(O)cc(CCCCC)cc1OC`, the IC50 stood at 37.2 µM in the data set with BV-2 [1] and 58.2 µM in [2]. Besides, the selectivity ratio in data set [3] stood at 1.6.

As for `C=C(C)[C@@H]1CCC(C)=C[C@H]1c1c(OC)cc(CCCCC)cc1OC`, the IC50 in the data set on BV-2 [1] was greater than 20 µM; in data set [2], greater than 200 µM.

As to `C=CCOc1cc(CCCCC)cc(OCC=C)c1[C@@H]1C=C(C)CC[C@H]1C(=C)C`, the IC50 in [2] is greater than 200 µM.

On to `C=C(C)[C@@H]1CCC(C)=C[C@H]1c1c(O)cc(CCCCC)cc1O` [CANNABIDIOL], for which the result with BV-2 [4], in the data set on Mus musculus [5], in the data set with BV-2 [6], in the data set on Mus musculus [7], with BV-2 [9] and with Mus musculus [10] was inactive. Besides, the IC50 was determined as 12.3 µM in the data set with BV-2 [1] and 8.5 µM in data set [2]. This compound had an AUCt in [8] of 66.7 ng·h/g. In [11], the peak level (Cmax) was 98.1 ng/g. Further, the MRT (in general, a mean duration of stay, worked out from the concentration-time curve) in [12] stood at 42 min. Moreover, the selectivity ratio in [3] was 0.7. For the same compound, the Ratio in data set [13] was less than 100%. Besides, the half-life (commonly the time in which the quantity being followed falls by half) in data set [14] was 30 min.

As to `C=C(C)[C@@H]1CCC(C)=C[C@H]1c1c(O)cc(C(C)n2ccnc2)cc1O` (stereo partly specified), the IC50 was 4.4 µM in the data set with BV-2 [1] and 32.6 µM in data set [2]. Moreover, in [3], the selectivity ratio worked out at 7.4.

As to `C=CCOc1cc(CCCCC)cc(O)c1[C@@H]1C=C(C)CC[C@H]1C(=C)C`, the IC50 stood at 59.8 µM in the data set on BV-2 [1] and 71.5 µM in [2]. Also, the selectivity ratio in data set [3] was 0.7.

For the compound `C=C(C)[C@@H]1CCC(C)=C[C@H]1c1c(O)cc(CCCCC)cc1OCC`, the IC50 in [2] amounted to 176 µM. Besides, in data set [3], the selectivity ratio was 1.1.

Take `C=C(C)[C@@H]1CCC(C)=C[C@H]1c1c(O)cc(CC)cc1O`: the IC50 with BV-2 [1] was found to be 2.5 µM; in [2] it was 22.6 µM. Also, the selectivity ratio in [3] was 9.1.

For the compound `C=C(C)[C@@H]1CCC(C)=C[C@H]1c1c(O)cc(CCCCC)cc1OCCC`, the IC50 in data set [2] is greater than 200 µM.

Regarding `C=C(C)[C@@H]1CCC(C)=C[C@H]1c1c(O)cc(C(C)n2cccc2)cc1O` (stereo partly specified), the results for the IC50 (in the data set with BV-2 [1]; in data set [2]) were 23.9 µM and 155 µM, respectively. The selectivity ratio in data set [3] came out at 6.5.

For `C=C(C)[C@@H]1CCC(C)=C[C@H]1c1c(O)cc(CCCCCC)cc1O`, the IC50 in the data set with BV-2 [1] was determined as 2.1 µM; in [2] it was 19 µM. Further, the selectivity ratio in data set [3] came to 9.

For `C#CCOc1cc(CCCCC)cc(OCC#C)c1[C@@H]1C=C(C)CC[C@H]1C(=C)C`, the values for the IC50 (in the data set on BV-2 [1]; in [2]) were 200 µM and greater than 200 µM, respectively.

Regarding `C=C(C)[C@@H]1CCC(C)=C[C@H]1c1c(O)cc(CCCCCCC)cc1O`, the IC50 in the data set with BV-2 [1] stood at 42 µM; in data set [2], 14.1 µM. The selectivity ratio in data set [3] was found to be 0.3.

For the compound `C=C(C)[C@@H]1CCC(C)=C[C@H]1c1c(O)cc(CCCCCCCCCCCC)cc1O`, in [2], the IC50 was greater than 200 µM.

In the case of `C=C(C)[C@@H]1CCC(C)=C[C@H]1c1c(OCC)cc(CCCCC)cc1OCC`, the IC50 in [2] is greater than 200 µM.

As to `C=C(C)[C@@H]1CCC(C)=C[C@H]1c1c(OCCC)cc(CCCCC)cc1OCCC`, the IC50 in data set [2] was greater than 200 µM.

Consider `CCCCCc1cc(O)c2c(c1)OC(C)(C)[C@@H]1CCC(C)=C[C@@H]21` [DRONABINOL], for which the Activity entry in [15] is recorded as “Toxic”.

As for `C=C(C)[C@@H]1CCC(C)=C[C@H]1c1c(O)cc(C(C)n2ccnn2)cc1O` (stereo partly specified), the values for the IC50 (with BV-2 [1]; in data set [2]) were 35.9 µM and 77.1 µM, respectively. For the same compound, the selectivity ratio in data set [3] was 2.1.

Take `C=C(C)[C@@H]1CCC(C)=C[C@H]1c1c(O)cc(CCCCCCCC)cc1O`: in data set [2], the IC50 was 26.2 µM. In addition, the selectivity ratio in data set [3] was 0.2.

Regarding `C=C(C)[C@@H]1CCC(C)=C[C@H]1c1c(O)cc(CCC)cc1O` [CANNABIDIVARIN], the figures for the IC50 (with BV-2 [1]; in [2]) were 5.3 µM and 18.3 µM, respectively. The selectivity ratio in data set [3] was found to be 3.5.
